Experimental data from patent US20190185544A1, “COMPOSITIONS AND METHODS OF MODULATING ABETA PROTEIN” (University of South Florida, priority 2016, published 2019).

Columns and labels:
N-terminus of APP = assay: Co-immunoprecipitation and co-localisation with N-terminal APP in CHO/APPwt cells; format: binding, human; settings: peptides 10 μM or apoE 10 μg/mL, 2 h; IP with 6H3B5 or pN-APP
Description: Total secreted APP (t-sAPP) and full-length APP (f-APP) in total (inputs), immunoprecipitates and immunodepleted media and lysates were determined by WB using 22C11 or anti-C-terminal APP751/70 antibody (pC-APP), respectively (FIG. 20A left panels and FIG. 20B, top panels). Alternatively, conditioned media and cell lysates were IP with anti-N-terminal APP41/66 antibody (pN-APP) and apoE, or 6KApoEp and ApoEp, was determined using anti-human apoE antibody (ApoE1H4; FIG. 20A, right panels) or 6H3B5, respectively (FIG. 20B, bottom panels). In addition, CHO/APPwt cells were plated at 8 well-chambers at 1×10^5/well for 24 h, treated with 6K, ApoEp or 6KApoEp at 10 μM for 2 h, fixed in 4% paraformaldehyde and stained with 6H3B5 and pN-APP antibodies (FIG. 20C). Alexa Fluor 488 goat anti-mouse IgG (green) was used to detect ApoEp and 6KApoEp, while Alexa Fluor 594 donkey anti-rabbit IgG (red) was used to detect N-terminal APP. DAPI co-staining was done to show nuclear DNA. Homogenates prepared from three TgAPPwt mice (2 female/1 male), two AD patients (AD1[…], AD2[…]) and two normal age-matched control cortices (Ctrl1[…], Ctrl2[…]) were also IP with 6H3B5 or pN-APP and t-APP and apoE were determined using 6E10 and mApoE, respectively (FIGS. 20D-20E).
Total secreted APP in conditioned media and full length APP in cell lysates were then determined by WB using anti-N-terminal (22C11) and anti-C-terminal APP antibodies (pC-APP), respectively. […] In addition, ApoEp and 6KApoEp colocalized with N-terminal APP in cultured CHO/APPwt cells as determined by immunofluorescence staining with 6H3B5 and pN-APP antibodies (FIG. 20C), respectively, confirming that N-terminal APP physically associates with apoE in cell culture. […]
WB analyses were performed as previously described^43,44. […] For all other proteins detected by WB, 10% tris-SDS gels were used. Densitometry analysis was performed as previously described using a FluorS Multiimager with Quantity One™ software 43. […]

CHO/APPswe cells = assay: Aβ and β-CTF in CHO/APPwt compared with CHO/APPswe cells; format: cell-based, Chinese hamster; settings: apoE4 0, 5, 10 μg/mL or 6KApoEp 0, 5, 10 μM, 2 h, serum-free medium
Description: CHO cells engineered to express human wild-type APP (CHO/APPwt) or Swedish mutant APP (CHO/APPswe) were obtained. These cells were cultured in 96 or 24 well plates at 4×10^4 or 2×10^5 cells/well, respectively, in Dulbecco's modified Eagle's medium (DMEM) with 10% fetal bovine serum, 1 mM sodium pyruvate and 100 U/mL of penicillin/streptomycin (Invitrogen, Thermo Fisher Scientific). In addition, murine N2a cells transfected with APPwt (N2a/APPwt were obtained), SH-SY5Y cells transfected with APPswe and wild-type SH-SY5Y cells (ATCC, Manassas, Va.) were cultured as previously described^42. Primary hN2TM human neurons (Neuromics, Edina, Minn.) were cultured in hN2TM human neuron culture media and primary HCN2 human neurons (ATCC) were cultured in DMEM with 4 mM L-glutamine adjusted to contain 1.5 g/L sodium bicarbonate, 4.5 g/L glucose, fetal bovine serum (10%).

CHO/APPwt cells = assay: APP processing and cell surface protein expression in CHO/APPwt cells (ELISA, WB, biotinylation, flow cytometry, confocal microscopy); format: cell-based, Chinese hamster
Description: In addition, full-length APP (f-APP, short and long exp, exposure), α/β-CTF and total APP in cell lysates were analyzed by WB using anti-C-terminal APP750/70 (pC-APP, left panel, FIG. 23C) and anti-N-terminal APP antibody (6E10, right panel, FIG. 23C). Cell lysates were also biotinylated and immunoprecipitated using Neutravidin beads and intracellular proteins obtained by Neutravidin depletion (intra) and cell surface proteins obtained by Neutravidin precipitation (cell surf) were analyzed for f-APP, LDLR and LRP1 by WB using 6E10, anti-LDLR and anti-LRP1 (FIG. 23D). Band density ratios of cell surf or intra to total f-APP was determined by densitometry analysis (FIG. 23E). Cellular membrane associated full-length APP was analyzed by flow cytometry and presented as means±s.d. median FL-1-A (FIG. 23F). […] Asterisk indicates P<0.05 compared with Ctrl as determined by t test.
In addition, some of the cells were biotinylated, cell lysates were immunoprecipitated using Neutravidin beads and cell surface (cell surf) proteins obtained by Neutravidin precipitation, intracellular (intra) proteins obtained by Neutravidin depletion and total proteins were analyzed for full-length APP by WB using pC-APP (pAPP751/770) (FIG. 27B). […]

Sequence of N-terminus of APP (P05067 18-189 limits assumed): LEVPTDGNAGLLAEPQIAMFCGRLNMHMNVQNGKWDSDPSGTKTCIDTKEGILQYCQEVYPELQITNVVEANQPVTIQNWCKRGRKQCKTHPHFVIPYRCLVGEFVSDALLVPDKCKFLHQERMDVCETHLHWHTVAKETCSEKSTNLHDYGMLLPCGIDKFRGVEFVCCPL

“ApoE3: human recombinant apolipoprotein E3 protein (BioVision)” was tested, and the “immunoprecipitation and localization with N-terminal APP” value (N-terminus of APP) was “immunoprecipitated and localized with N-terminal APP in vivo and in vitro”.
“ApoE4: human recombinant apolipoprotein E4 protein (BioVision)” was tested, and the “immunoprecipitation and localization with N-terminal APP” value (N-terminus of APP) was “immunoprecipitated and localized with N-terminal APP in vivo and in vitro”, the “Aβ and β-CTF levels in CHO/APPwt compared with CHO/APPswe cells” value (CHO/APPswe cells) was “enhanced Aβ and β-CTF levels much more in CHO/APPwt cells compared with CHO cells overexpressing APP with the Swedish mutation” and the “Aβ, β-CTF and sAPPα levels” value (CHO/APPwt cells; 6KApoEp 10 μM, apoE4 10 μg/mL, 2 h) was “markedly increased Aβ and β-CTF levels, while reducing sAPPα levels”. For the same substance, the “cell surface protein levels of LDLR or LRP1” value (CHO/APPwt cells; absence or presence of β- or γ-secretase inhibitors) was “did not alter cell surface protein levels of LDLR or LRP1”.
